Results published in patent US20260152777A1, “METHOD FOR PRODUCING EPIGALLOCATECHIN GALLATE MONOGLUCOSIDE” (GIVAUDAN SA, priority 2022, published 2026).
pIC50: −log10 of the molar value. Read-outs that look alike come from different tables or passages of the source.

Key:
[1] = system: Asian volunteers with dull skin and large senescence spots; experiment: Clinical study: ultrasound measurement of dermis density using DUB SkinScanner; assay type: in vivo, human; conditions: for Dermis density Mean +/− SD / Dermis density change vs D 0: cream with 2% ascorbic acid, hemiface, Asian women
Excerpt: For this study, volunteers applied the cream twice a day for 56 days.
GLYCOL, DIMETHICONE, FRAGRANCE
Volunteers were divided into two groups as follows: • Group 1: 20 Asian women testing the active cream in comparison to the placebo cream with an average age of 54±5 years. • Group 2: 18 Asian women testing the vitamin C cream in comparison to the placebo cream with an average age of 53±8 years.
Volunteers applied a cream containing 0.4% of active, 2% of ascorbic acid (vitamin C), respectively, on one hemiface and a placebo cream on the other hemiface […] for 56 days.
During this study, a skin color and spots analysis was conducted using Colorface®, biomechanical properties were tested using Cutometery®, and the dermis thickness was determined using a DUB SkinScanner 75® probe (max. depth of 3.28 mm).
The DUB Skin Scanner system is a high-frequency, high-resolution ultrasound diagnostic tool for use in dermatology, cosmetics and pharmaceuticals and clinical research. 75 MHz ultrasound is a popular method for non-invasive skin analysis. High frequency ultrasound (75 MHz) can explore the superficial layers of the skin and can penetrate up to 3 mm into the skin. Skin ultrasound is based on the population of ultrasound in the skin and on the direction and measurement of the amplitudes of the part reflected by the interfaces separating two media having different characteristics of acoustic waves. An ultrasound imaging technique used for the visualization of the structure of the subcutaneous body allows the evaluation of the homogeneity of the skin, including the density and the skin thickness.
Three measurements of thickness and density were taken to obtain an average for each image.
For this study, the analysis of the density of the dermis was carried out on D0, D28 and D56.

[2] = system: spontaneous formation of Advanced Glycation End-products (AGEs); experiment: Anti-glycation in tubo assay (BSA + ribose, fluorescence); assay type: biochemical; conditions: 17 h at 37° C.; for pIC50: BSA + ribose, read-out: IC50 in well (concentration which inhibits AGEs formation by half)
Description: The anti-glycation effect was evaluated using an in tubo assay to measure the spontaneous formation of Advanced Glycation End-products (AGEs). This assay was conducted on a 96-wells microplate. […] The extracts were diluted in sodium phosphate buffer (0.1 M, pH 7.4). Several dilutions were tested. Each diluted extract was run in triplicate. A standard range of aminoguanidine was used as inhibitor reference (positive control). A mixture of the sodium phosphate buffer and BSA was used to validate the experiment and a mixture of sodium phosphate buffer, BSA and ribose was used as the positive control. Two blanks were carried out for the extract: • with phosphate buffer, BSA and extract • with phosphate buffer, ribose and extract The microplate was agitated and incubated for 17 h at 37° C. The fluorescence reading was performed with ? excitation 340 nm and ? emission 420 nm. The anti-glycation activity of the extract was calculated as follows: [formula] FI: Fluorescence of tested extract; blank extract (ribose or BSA); positive control; negative control. Based on the above measurements and calculation, the IC50, i.e. the concentration of the extract which inhibits AGEs formation by half, was calculated.

[3] = system: Lactobacillus acidophilus; conditions: 1%, culture supernatant, NMR, vs untreated
Description: The supernatants of the cultures previously described in Example 10, both of the untreated strain culture and the culture of L. acidophilus treated with 1% EGCG MONOG were kept and frozen at −80° C. before analysis using high-field NMR. For each of these two conditions, three samples were analyzed to assess the tests reproducibility (n=3).
For each sample, 400 μl of supernatant were taken and 100 μl of D2O/TSP (3-(trimethylsilyl)propionic-2,2,3,3-d4 acid sodium salt, internal reference) were added at a concentration of 1 g/l. The samples were analyzed by high field ^1H NMR on a Bruker ASCEND 500 spectrometer operating at a proton frequency of 500 MHz using a 5 mm cryosonde probe. NMR spectra were calibrated to TSP-d4 at 0 ppm using Topspin software version 4.3.0 (Bruker Biospin, Germany). Quantification of metabolites was performed by utilizing the internal standard (TSP-d4) added at a known concentration. Compounds were quantified by the relative ratio of the intensities of their peak integrals and those of the internal standard.

[4] = system: Normal Human Epidermal Keratinocytes (NHEKs); experiment: Antioxidant activity: ROS production in keratinocytes stressed with TBP (DCFH-DA probe); assay type: cell-based; conditions: at 0.1%; TBP column = 100, Untreated = 27.5
Description: A 96 wells-plate was coated with a collagen I solution at 50 μg/ml. Normal Human Epidermal Keratinocytes (NHEKs) were seeded at 20′000 cells per well with four replicates. Cells were incubated for 24 hours in complete medium (Epilife, Gibco) supplemented with Human keratinocyte growth supplements (HKGS) factor (Gibco) and 1% antibiotics (Sigma) at 37° C. with 5% CO2. […] The evolution of the fluorescence was followed for 1 hour.

[5] = system: female volunteers with a dark skin type (phototype IV or more) and dull skin; experiment: Clinical evaluation on African skin: skin color by Chromameter L* parameter; assay type: in vivo, human; conditions: cream 0.4%, full face twice daily; for increase of L* on uneven skin tone area: dark skin type
Description: The clinical study was carried out on 85 female volunteers aged from 19 to 47 years, which were divided in three groups: active, placebo and aglycone. The study was performed in South Africa on female volunteers with a dark skin type (phototype IV or more) and dull skin. All participants provided signed informed consent at the beginning of the study. The study was conducted according to the guidelines of the Declaration of Helsinki. […] Skin color evolution was measured after 14, 28 and 56 days using L* parameter measurement by Chromameter®.
The skin color was evaluated by means of a Chromameter CR400, which measures skin color, and the parameter L* (lightness) was recorded. The greater the value, the lighter the skin color. Depending on the test type, at least three or at least 15 readings were taken at each test sub-site for each time interval to serve as the specific pigmentation sport color measurement component of the study. Skin color was analyzed at D0, D14, D28 and D56.
For all studies in vivo, a Shapiro Wilk test was used to verify whether the raw data followed the Gaussian Law. In case of Normally-distributed data, the mean values were compared using either an unpaired or paired t student test. In case of non-Normally-distributed data, a Wilcoxon (paired) and Kruskal-Wallis test followed by a Mann-Whitney U (unpaired) test were used for paired data and unpaired data, respectively.

| SMILES | Dermis density Mean +/− SD ([1]; D 0 (baseline)) | Dermis density Mean +/− SD ([1]; D 28) | Dermis density change vs D 0 ([1]; D 28) | Dermis density Mean +/− SD ([1]; D 56) | Dermis density change vs D 0 ([1]; D 56) | pIC50 ([2]; listed as ECGC monoglucoside) | pIC50 [2] | Inhibition AGE's ([2]; tested concentration 0.08 mM) | Inhibition AGE's ([2]; tested concentration 0.4 mM) | Inhibition AGE's ([2]; tested concentration 1 mM) | Inhibition AGE's ([2]; tested concentration 8 mM) | decrease of consumption of sugars by L. acidophilus [3] | increase of Trigonelline released by L. acidophilus [3] | increase of polysorbate consumption by L. acidophilus [3] | ROS, Mean (% of untreated) [4] | increase of the dermis density ([1]; summary statement, clinical evaluation on Asian volunteers) | increase of L*, global skin color, 15 measurements on hemi face ([5]; dark skin type, 14, 28 and 56 days) | increase of L* on uneven skin tone area ([5]; after 14 days) | increase of L* on uneven skin tone area ([5]; after 28 days) | increase of L* on uneven skin tone area ([5]; after 56 days) |
| --- | --- | --- | --- | --- | --- | --- | --- | --- | --- | --- | --- | --- | --- | --- | --- | --- | --- | --- | --- | --- |
| O=C1O[C@H]([C@@H](O)CO)C(O)=C1O [Ascorbic acid, ascorbic acid] | 37.7 ± 8.1 arbitrary unit | 39.1 ± 8.3 arbitrary unit | +3.8% | 40.7 ± 9.2 arbitrary unit | +7.2% |  |  |  |  |  |  |  |  |  |  |  |  |  |  |  |
| O=C(O[C@@H]1Cc2c(O)cc(O)cc2O[C@@H]1c1cc(O)c(O[C@H]2O[C@H](CO)[C@@H](O)[C@H](O)[C@H]2O)c(O)c1)c1cc(O)c(O)c(O)c1 [epigallocatechin gallate 4′-O-α-monoglucoside] |  |  |  |  |  | 3.88 | 3.93 | 31.01% | 53.22% | 81.54% | 109.26% | 17% | up to 65% | 51% | 33.75 % of untreated | up to 16.6% | up to +6.8% | +1.3% | +4.7% | +6.3% |
